Measurements published in PubChem BioAssay (NCI).
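Compound exposure: 48 hours, 5 concentrations, 96-well plates. The concentration for 50% growth inhibition is given as GI50. The concentration for full growth arrest is given as TGI.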

Key:
Experiment in all cases: growth of human tumour cells (NCI), 48 h
786-0 renal = tested on: 786-0 renal
A498 renal = tested on: A498 renal
A549 NSCLC = tested on: A549 NSCLC
ACHN renal = tested on: ACHN renal
BT-549 breast = tested on: BT-549 breast
CAKI-1 renal = tested on: CAKI-1 renal
CCRF-CEM leukemia = tested on: CCRF-CEM leukemia
COLO 205 colon = tested on: COLO 205 colon
DU-145 prostate = tested on: DU-145 prostate
EKVX NSCLC = tested on: EKVX NSCLC
HCC-2998 colon = tested on: HCC-2998 colon
HCT-116 colon = tested on: HCT-116 colon
HCT-15 colon = tested on: HCT-15 colon
HL-60(TB) leukemia = tested on: HL-60(TB) leukemia
HOP-62 NSCLC = tested on: HOP-62 NSCLC
HOP-92 NSCLC = tested on: HOP-92 NSCLC
HS 578T breast = tested on: HS 578T breast
HT29 colon = tested on: HT29 colon
IGROV1 ovarian = tested on: IGROV1 ovarian
K-562 leukemia = tested on: K-562 leukemia
KM12 colon = tested on: KM12 colon
LOX IMVI melanoma = tested on: LOX IMVI melanoma
M14 melanoma = tested on: M14 melanoma
MALME-3M melanoma = tested on: MALME-3M melanoma
MCF7 breast = tested on: MCF7 breast
MDA-MB-231 breast = tested on: MDA-MB-231 breast
MDA-MB-435 = tested on: MDA-MB-435
MDA-MB-468 breast = tested on: MDA-MB-468 breast
MOLT-4 leukemia = tested on: MOLT-4 leukemia
NCI-H226 lung = tested on: NCI-H226 lung
NCI-H23 lung = tested on: NCI-H23 lung
NCI-H460 lung = tested on: NCI-H460 lung
NCI-H522 lung = tested on: NCI-H522 lung
OVCAR-3 ovarian = tested on: OVCAR-3 ovarian
OVCAR-4 ovarian = tested on: OVCAR-4 ovarian
OVCAR-5 ovarian = tested on: OVCAR-5 ovarian
OVCAR-8 ovarian = tested on: OVCAR-8 ovarian
PC-3 prostate = tested on: PC-3 prostate
RPMI-8226 leukemia = tested on: RPMI-8226 leukemia
RXF 393 renal = tested on: RXF 393 renal
SF-268 CNS = tested on: SF-268 CNS
SF-295 CNS = tested on: SF-295 CNS
SF-539 CNS = tested on: SF-539 CNS
SK-MEL-28 melanoma = tested on: SK-MEL-28 melanoma
SK-MEL-5 melanoma = tested on: SK-MEL-5 melanoma
SK-OV-3 ovarian = tested on: SK-OV-3 ovarian
SN12C renal = tested on: SN12C renal
SNB-19 CNS = tested on: SNB-19 CNS
SNB-75 CNS = tested on: SNB-75 CNS
SR leukemia = tested on: SR leukemia
SW-620 colon = tested on: SW-620 colon
T-47D breast = tested on: T-47D breast
TK-10 renal = tested on: TK-10 renal
U251 CNS = tested on: U251 CNS
UACC-257 melanoma = tested on: UACC-257 melanoma
UACC-62 melanoma = tested on: UACC-62 melanoma
UO-31 renal = tested on: UO-31 renal

For `CCCCSc1nc(NCCc2c[nH]c3ccccc23)c(C#N)c(-c2ccccc2)n1`, the GI50 (786-0 renal) was 10.5 µM, the TGI (786-0 renal) was 27 µM and the GI50 (A498 renal) was 16.2 µM. For the same compound, the TGI (A498 renal) was 31.6 µM, the GI50 (A549 NSCLC) was 22 µM and the TGI (A549 NSCLC) was 82.3 µM. It also gave a GI50 (ACHN renal) of 12.7 µM, a TGI (ACHN renal) of 28.5 µM and a GI50 (BT-549 breast) of 12.3 µM. The TGI (BT-549 breast) was 25.7 µM, the GI50 (CAKI-1 renal) was 5.56 µM and the TGI (CAKI-1 renal) was 20.7 µM. The GI50 (CCRF-CEM leukemia) was 5.38 µM, the TGI (CCRF-CEM leukemia) was > 100 µM and the GI50 (COLO 205 colon) was 11.5 µM. For the same compound, the TGI (COLO 205 colon) was 29.5 µM, the GI50 (DU-145 prostate) was 14.1 µM and the TGI (DU-145 prostate) was 32.1 µM. The GI50 (EKVX NSCLC) was 10 µM, the TGI (EKVX NSCLC) was 32.4 µM and the GI50 (HCC-2998 colon) was 7.92 µM. The TGI (HCC-2998 colon) was 21.8 µM, the GI50 (HCT-116 colon) was 3.82 µM and the TGI (HCT-116 colon) was 16.5 µM. It also gave a GI50 (HCT-15 colon) of 4.44 µM, a TGI (HCT-15 colon) of 16.9 µM and a GI50 (HL-60(TB) leukemia) of 16 µM. The TGI (HL-60(TB) leukemia) was 82.5 µM, the GI50 (HOP-62 NSCLC) was 12.8 µM and the TGI (HOP-62 NSCLC) was 29.7 µM. It also gave a GI50 (HOP-92 NSCLC) of 5.54 µM, a TGI (HOP-92 NSCLC) of 25.4 µM and a GI50 (HS 578T breast) of 12.5 µM. For the same compound, the TGI (HS 578T breast) was 61.5 µM, the GI50 (HT29 colon) was 4.34 µM and the TGI (HT29 colon) was 16.4 µM. The GI50 (IGROV1 ovarian) was 16 µM, the TGI (IGROV1 ovarian) was 32.3 µM and the GI50 (K-562 leukemia) was 4.91 µM. The TGI (K-562 leukemia) was > 100 µM, the GI50 (KM12 colon) was 4.59 µM and the TGI (KM12 colon) was 18 µM. It also gave a GI50 (LOX IMVI melanoma) of 4.48 µM, a TGI (LOX IMVI melanoma) of 15.5 µM and a GI50 (M14 melanoma) of 12.3 µM. It also gave a TGI (M14 melanoma) of 26.9 µM, a GI50 (MALME-3M melanoma) of 17.7 µM and a TGI (MALME-3M melanoma) of 32.6 µM. It also gave a GI50 (MCF7 breast) of 5.26 µM, a TGI (MCF7 breast) of 19.7 µM and a GI50 (MDA-MB-231 breast) of 11.1 µM. It also gave a TGI (MDA-MB-231 breast) of 25.4 µM, a GI50 (MDA-MB-435) of 13.7 µM and a TGI (MDA-MB-435) of 27.4 µM. It also gave a GI50 (MDA-MB-468 breast) of 5.3 µM, a TGI (MDA-MB-468 breast) of 18.8 µM and a GI50 (MOLT-4 leukemia) of 5.73 µM. For the same compound, the TGI (MOLT-4 leukemia) was 78.8 µM, the GI50 (NCI-H226 lung) was 12.4 µM and the TGI (NCI-H226 lung) was 27.3 µM. For the same compound, the GI50 (NCI-H23 lung) was 12.8 µM, the TGI (NCI-H23 lung) was 27.9 µM and the GI50 (NCI-H460 lung) was 4.2 µM. It also gave a TGI (NCI-H460 lung) of 18.4 µM, a GI50 (NCI-H522 lung) of 15.5 µM and a TGI (NCI-H522 lung) of 32.5 µM. For the same compound, the GI50 (OVCAR-3 ovarian) was 14.7 µM, the TGI (OVCAR-3 ovarian) was 29.1 µM and the GI50 (OVCAR-4 ovarian) was 11.8 µM. The TGI (OVCAR-4 ovarian) was 34.8 µM, the GI50 (OVCAR-5 ovarian) was 12.6 µM and the TGI (OVCAR-5 ovarian) was 26 µM. For the same compound, the GI50 (OVCAR-8 ovarian) was 23.7 µM, the TGI (OVCAR-8 ovarian) was > 100 µM and the GI50 (PC-3 prostate) was 4.42 µM. For the same compound, the TGI (PC-3 prostate) was 37.9 µM, the GI50 (RPMI-8226 leukemia) was 12.1 µM and the TGI (RPMI-8226 leukemia) was > 100 µM. The GI50 (RXF 393 renal) was 11.9 µM, the TGI (RXF 393 renal) was 25.8 µM and the GI50 (SF-268 CNS) was 14.6 µM. For the same compound, the TGI (SF-268 CNS) was 43.7 µM, the GI50 (SF-295 CNS) was 13.8 µM and the TGI (SF-295 CNS) was 29.8 µM. It also gave a GI50 (SF-539 CNS) of 12.3 µM, a TGI (SF-539 CNS) of 27.2 µM and a GI50 (SK-MEL-28 melanoma) of 14.5 µM. For the same compound, the TGI (SK-MEL-28 melanoma) was 29.1 µM, the GI50 (SK-MEL-5 melanoma) was 9.88 µM and the TGI (SK-MEL-5 melanoma) was 21.5 µM. The GI50 (SK-OV-3 ovarian) was 22.4 µM, the TGI (SK-OV-3 ovarian) was 61.3 µM and the GI50 (SN12C renal) was 12.7 µM. It also gave a TGI (SN12C renal) of 25.5 µM, a GI50 (SNB-19 CNS) of 17.2 µM and a TGI (SNB-19 CNS) of 34.6 µM. The GI50 (SNB-75 CNS) was 14.1 µM, the TGI (SNB-75 CNS) was 47 µM and the GI50 (SR leukemia) was 4.88 µM. The TGI (SR leukemia) was > 100 µM, the GI50 (SW-620 colon) was 6.48 µM and the TGI (SW-620 colon) was 23.3 µM. The GI50 (T-47D breast) was 3.78 µM, the TGI (T-47D breast) was 19.4 µM and the GI50 (TK-10 renal) was 26.1 µM. The TGI (TK-10 renal) was 54.7 µM, the GI50 (U251 CNS) was 11.4 µM and the TGI (U251 CNS) was 25.3 µM. The GI50 (UACC-257 melanoma) was 20.4 µM, the TGI (UACC-257 melanoma) was 47 µM and the GI50 (UACC-62 melanoma) was 13.7 µM. For the same compound, the TGI (UACC-62 melanoma) was 26.6 µM, the GI50 (UO-31 renal) was 14.6 µM and the TGI (UO-31 renal) was 34.3 µM.
